Laboratory results from patent US20200016159A1, “N3-CYCLICALLY SUBSTITUTED THIENOURACILS AND USE THEREOF” (Bayer Aktiengesellschaft, priority 2016, published 2020).
pIC50: −log10 of the molar value.

Each compound was assayed against T1, human adenosine A2b receptor (Homo sapiens, UniProt P29275) (assay: Cellular in vitro reporter gene test for A2b receptor activity (antagonism of NECA)). Conditions: recombinant CHO-K1 cells, CRE-luciferase reporter, co-incubation with EC50 concentration of NECA, 3 hours.
T1 sequence (P29275 1-332): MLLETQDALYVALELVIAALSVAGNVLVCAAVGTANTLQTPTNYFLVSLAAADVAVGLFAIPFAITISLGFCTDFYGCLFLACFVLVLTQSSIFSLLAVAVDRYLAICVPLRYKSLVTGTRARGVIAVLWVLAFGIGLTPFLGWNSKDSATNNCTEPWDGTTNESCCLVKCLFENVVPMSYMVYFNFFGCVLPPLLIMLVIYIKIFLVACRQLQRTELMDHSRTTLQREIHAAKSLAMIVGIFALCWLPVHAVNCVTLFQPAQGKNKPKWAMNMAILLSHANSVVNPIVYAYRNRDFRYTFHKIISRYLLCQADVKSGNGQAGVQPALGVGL
Assay type: cell-based
Set-up: expressed in transfected cells; host or cells: CHO-K1 (Chinese hamster ovary) with CRE-luciferase reporter
Method: The identification of selective antagonists of the human adenosine A2b receptor and the quantification of the efficacy and selectivity of the compounds according to the invention was carried out with the aid of recombinant cell lines for the human adenosine receptors A1, A2a, A2b and A3. These cell lines were originally derived from an ovarepithelial cell of the hamster (Chinese Hamster Ovary, CHO-K1, American Type Culture Collection, Manassas, Va. 20108, USA). In addition to the respective recombinantly expressed adenosine receptor for testing the efficacy at the A1, A2a and A2b receptors, the cell lines contain a reporter gene construct where expression of the firefly (Photinus pyralis) luciferase is under the control of a promoter which can be activated via intracellular signal cascades by stimulation of the receptors with the (not subtype-selective) adenosine receptor agonist NECA (5′-N-ethylcarboxamidoadenosine) [S. J. Hill, J. G. Baker, S. Rhees, Curr. Opin. Pharmacol. 1, 526-532 (2001)].
In the case of the A2a and A2b cell lines, this is a minimal promoter having a plurality of cAMP-responsive elements (CRE). Stimulation of the Gs-coupled A2b or A2a receptors by NECA ultimately leads, via formation of cAMP, to CRE-dependent induction of luciferase expression, which is detected 3 hours after the start of the incubation with NECA using a detection solution in a suitable luminometer. For testing the antagonists, initially, in a pre-experiment, the concentration of NECA which, at the test day in question, results in half-maximum stimulation of luciferase expression (EC50 concentration) is determined. By joint incubation of this EC50 concentration of NECA with the substances to be tested, it is possible to determine their antagonistic activity.
Table 1 below lists the IC50 values from the A2b receptor assay for individual working examples (in some cases as means of a plurality of independent individual determinations and rounded to two significant figures; it may also be the case here that various independent preparations of the respective working example have been used): […]

| Structure (SMILES) | pIC50 |
| --- | --- |
| Cc1c(Cn2nc[nH]c2=O)sc2c1c(=O)n(C1(C)CC1)c(=O)n2CC1CC1(F)F (single isomer, unassigned) [Example 67, 1-[(2,2-Difluorocyclopropyl)methyl]-5-methyl-3-(1-methylcyclopropyl)-6-[(5-oxo-4,5-dihydro-1H-1,2,4-triazol-1-yl)methyl]thieno[2,3-d]pyrimidine-2,4(1H,3H)-dione] | 7.27 |
| Cc1c(CN2CCNC2=O)sc2c1c(=O)n(C1CC1C)c(=O)n2CCCF (single isomer, unassigned) [Example 91, 1-(3-Fluoropropyl)-5-methyl-3-(2-methylcyclopropyl)-6-[(2-oxoimidazolidin-1-yl)methyl]thieno[2,3-d]pyrimidine-2,4(1H,3H)-dione] | 7.70 |
| Cc1c(CN2CCNC2=O)sc2c1c(=O)n(C1CC1C)c(=O)n2CCCF (single isomer, unassigned) [Example 92, 1-(3-Fluoropropyl)-5-methyl-3-(2-methylcyclopropyl)-6-[(2-oxoimidazolidin-1-yl)methyl]thieno[2,3-d]pyrimidine-2,4(1H,3H)-dione] | 8.55 |
| COCCn1c(=O)n(C2CC2(C)C)c(=O)c2c(C)c(CN3CCNC3=O)sc21 (single isomer, unassigned) [Example 104, 3-(2,2-Dimethylcyclopropyl)-1-(2-methoxyethyl)-5-methyl-6-[(2-oxoimidazolidin-1-yl)methyl]thieno[2,3-d]pyrimidine-2,4(1H,3H)-dione] | 7.46 |
| Cc1c(Cn2nc[nH]c2=O)sc2c1c(=O)n(C1CC1)c(=O)n2CC1CCCC1(F)F (single isomer, unassigned) [Example 207, 3-Cyclopropyl-1-[(2,2-difluorocyclopentyl)methyl]-5-methyl-6-[(5-oxo-4,5-dihydro-1H-1,2,4-triazol-1-yl)methyl]thieno[2,3-d]pyrimidine-2,4(1H,3H)-dione] | 6.04 |
| Cc1c(Cn2nc[nH]c2=O)sc2c1c(=O)n(C1CC1)c(=O)n2CC1CCCC1(F)F (single isomer, unassigned) [Example 208, 3-Cyclopropyl-1-[(2,2-difluorocyclopentyl)methyl]-5-methyl-6-[(5-oxo-4,5-dihydro-1H-1,2,4-triazol-1-yl)methyl]thieno[2,3-d]pyrimidine-2,4(1H,3H)-dione] | 8.00 |
| Cc1c(Cn2nc[nH]c2=O)sc2c1c(=O)n(C1CC1)c(=O)n2CC1CCC(F)(F)C1 (single isomer, unassigned) [Example 210, 3-Cyclopropyl-1-[(3,3-difluorocyclopentyl)methyl]-5-methyl-6-[(5-oxo-4,5-dihydro-1H-1,2,4-triazol-1-yl)methyl]thieno[2,3-d]pyrimidine-2,4(1H,3H)-dione] | 6.70 |
| Cc1c(CN2CCNC2=O)sc2c1c(=O)n(C1CC1C)c(=O)n2C (single isomer, unassigned) [Example 223, 1,5-Dimethyl-3-(2-methylcyclopropyl)-6-[(2-oxoimidazolidin-1-yl)methyl]thieno[2,3-d]pyrimidine-2,4(1H,3H)-dione] | 7.72 |
| CCCn1c(=O)n(C2CC2C)c(=O)c2c(C)c(CN3CCNC3=O)sc21 (single isomer, unassigned) [Example 228, 5-Methyl-3-(2-methylcyclopropyl)-6-[(2-oxoimidazolidin-1-yl)methyl]-1-propylthieno[2,3-d]pyrimidine-2,4(1H,3H)-dione] | 8.24 |
| Cc1c(CN2CCNC2=O)sc2c1c(=O)n(C1CC1C)c(=O)n2CCF (single isomer, unassigned) [Example 232, 1-(2-Fluoroethyl)-5-methyl-3-(2-methylcyclopropyl)-6-[(2-oxoimidazolidin-1-yl)methyl]thieno[2,3-d]pyrimidine-2,4(1H,3H)-dione] | 9.07 |

Further compounds by rising pIC50, results first:

| pIC50 | Structure (SMILES) |
| --- | --- |
| 5.89 | Cc1c(Cn2nc[nH]c2=O)sc2c1c(=O)n(C1CC1)c(=O)n2CC1CCC(F)(F)C1 (single isomer, unassigned) [Example 211, 3-Cyclopropyl-1-[(3,3-difluorocyclopentyl)methyl]-5-methyl-6-[(5-oxo-4,5-dihydro-1H-1,2,4-triazol-1-yl)methyl]thieno[2,3-d]pyrimidine-2,4(1H,3H)-dione] |
| 6.80 | Cc1c(Cn2nc[nH]c2=O)sc2c1c(=O)n(C1(C)CC1)c(=O)n2CC1CC1(F)F (single isomer, unassigned) [Example 68, 1-[(2,2-Difluorocyclopropyl)methyl]-5-methyl-3-(1-methylcyclopropyl)-6-[(5-oxo-4,5-dihydro-1H-1,2,4-triazol-1-yl)methyl]thieno[2,3-d]pyrimidine-2,4(1H,3H)-dione] |
| 6.85 | Cc1c(CN2CCNC2=O)sc2c1c(=O)n(C1CC1(C)C)c(=O)n2CCCF (single isomer, unassigned) [Example 98, 3-(2,2-Dimethylcyclopropyl)-1-(3-fluoropropyl)-5-methyl-6-[(2-oxoimidazolidin-1-yl)methyl]thieno[2,3-d]pyrimidine-2,4(1H,3H)-dione] |
| 7.04 | COCCn1c(=O)n(C2CC2(C)C)c(=O)c2c(C)c(CN3CCNC3=O)sc21 (single isomer, unassigned) [Example 105, 3-(2,2-Dimethylcyclopropyl)-1-(2-methoxyethyl)-5-methyl-6-[(2-oxoimidazolidin-1-yl)methyl]thieno[2,3-d]pyrimidine-2,4(1H,3H)-dione] |
| 7.49 | Cc1c(CN2CCNC2=O)sc2c1c(=O)n(C1CC1(C)C)c(=O)n2CCC(F)(F)F (single isomer, unassigned) [Example 101, 3-(2,2-Dimethylcyclopropyl)-5-methyl-6-[(2-oxoimidazolidin-1-yl)methyl]-1-(3,3,3-trifluoropropyl)thieno[2,3-d]pyrimidine-2,4(1H,3H)-dione] |
| 7.55 | Cc1c(CN2CCNC2=O)sc2c1c(=O)n(C1CC1(C)C)c(=O)n2CCCF (single isomer, unassigned) [Example 99, 3-(2,2-Dimethylcyclopropyl)-1-(3-fluoropropyl)-5-methyl-6-[(2-oxoimidazolidin-1-yl)methyl]thieno[2,3-d]pyrimidine-2,4(1H,3H)-dione] |
| 7.59 | COCCn1c(=O)n(C2CC2C)c(=O)c2c(C)c(CN3CCNC3=O)sc21 (single isomer, unassigned) [Example 95, 1-(2-Methoxyethyl)-5-methyl-3-(2-methylcyclopropyl)-6-[(2-oxoimidazolidin-1-yl)methyl]thieno[2,3-d]pyrimidine-2,4(1H,3H)-dione] |
| 7.59 | CCn1c(=O)n(C2CC2C)c(=O)c2c(C)c(CN3CCNC3=O)sc21 (single isomer, unassigned) [Example 225, 1-Ethyl-5-methyl-3-(2-methylcyclopropyl)-6-[(2-oxoimidazolidin-1-yl)methyl]thieno[2,3-d]pyrimidine-2,4(1H,3H)-dione] |
| 8.14 | Cc1c(CN2CCNC2=O)sc2c1c(=O)n(C1CC1(C)C)c(=O)n2CCC(F)(F)F (single isomer, unassigned) [Example 102, 3-(2,2-Dimethylcyclopropyl)-5-methyl-6-[(2-oxoimidazolidin-1-yl)methyl]-1-(3,3,3-trifluoropropyl)thieno[2,3-d]pyrimidine-2,4(1H,3H)-dione] |
| 8.72 | CCn1c(=O)n(C2CC2C)c(=O)c2c(C)c(CN3CCNC3=O)sc21 (single isomer, unassigned) [Example 226, 1-Ethyl-5-methyl-3-(2-methylcyclopropyl)-6-[(2-oxoimidazolidin-1-yl)methyl]thieno[2,3-d]pyrimidine-2,4(1H,3H)-dione] |
| 8.80 | Cc1c(CN2CCNC2=O)sc2c1c(=O)n(C1CC1C)c(=O)n2C (single isomer, unassigned) [Example 222, 1,5-Dimethyl-3-(2-methylcyclopropyl)-6-[(2-oxoimidazolidin-1-yl)methyl]thieno[2,3-d]pyrimidine-2,4(1H,3H)-dione] |
| 8.92 | CCCn1c(=O)n(C2CC2C)c(=O)c2c(C)c(CN3CCNC3=O)sc21 (single isomer, unassigned) [Example 229, 5-Methyl-3-(2-methylcyclopropyl)-6-[(2-oxoimidazolidin-1-yl)methyl]-1-propylthieno[2,3-d]pyrimidine-2,4(1H,3H)-dione] |
